According to EP0684822B1, “CARBOCYCLIC DEOXYGUANOSINE ANALOGS FOR THE TREATMENT OF VIRAL INFECTIONS” (SOUTHERN RESEARCH INSTITUTE, priority 1993, dated 1994):
pIC50, pKi: −log10 of the molar value.

Legend:
[1] = target: T1, HSV DNA polymerase (Human herpesvirus 1, UniProt P04293); assay: Inhibition of [3H]dGTP incorporation into DNA by purified HSV DNA polymerase; assay type: biochemical, HSV-1; settings: for pIC50: incorporation of 1 µM [3H]dGTP into DNA
T1 construct: HSV DNA polymerase was purified from H.Ep.-2 cells infected with HSV-1; made in house; host or cells: H.Ep.-2 cells infected with HSV-1
T1 sequence (P10226 whole entry): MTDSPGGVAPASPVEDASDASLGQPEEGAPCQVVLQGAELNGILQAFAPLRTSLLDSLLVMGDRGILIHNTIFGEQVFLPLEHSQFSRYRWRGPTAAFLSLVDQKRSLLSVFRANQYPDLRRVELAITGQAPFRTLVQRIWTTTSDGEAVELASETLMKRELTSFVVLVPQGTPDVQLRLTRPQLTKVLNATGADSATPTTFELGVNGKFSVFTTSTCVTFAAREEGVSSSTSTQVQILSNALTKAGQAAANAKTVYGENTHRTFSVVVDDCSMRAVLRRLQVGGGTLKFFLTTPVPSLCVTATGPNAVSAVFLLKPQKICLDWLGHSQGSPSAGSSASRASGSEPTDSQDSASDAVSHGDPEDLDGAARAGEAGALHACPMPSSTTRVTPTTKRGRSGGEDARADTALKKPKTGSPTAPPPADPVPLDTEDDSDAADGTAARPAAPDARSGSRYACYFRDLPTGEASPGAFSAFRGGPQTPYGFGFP
T1 sequence (P04293 whole entry): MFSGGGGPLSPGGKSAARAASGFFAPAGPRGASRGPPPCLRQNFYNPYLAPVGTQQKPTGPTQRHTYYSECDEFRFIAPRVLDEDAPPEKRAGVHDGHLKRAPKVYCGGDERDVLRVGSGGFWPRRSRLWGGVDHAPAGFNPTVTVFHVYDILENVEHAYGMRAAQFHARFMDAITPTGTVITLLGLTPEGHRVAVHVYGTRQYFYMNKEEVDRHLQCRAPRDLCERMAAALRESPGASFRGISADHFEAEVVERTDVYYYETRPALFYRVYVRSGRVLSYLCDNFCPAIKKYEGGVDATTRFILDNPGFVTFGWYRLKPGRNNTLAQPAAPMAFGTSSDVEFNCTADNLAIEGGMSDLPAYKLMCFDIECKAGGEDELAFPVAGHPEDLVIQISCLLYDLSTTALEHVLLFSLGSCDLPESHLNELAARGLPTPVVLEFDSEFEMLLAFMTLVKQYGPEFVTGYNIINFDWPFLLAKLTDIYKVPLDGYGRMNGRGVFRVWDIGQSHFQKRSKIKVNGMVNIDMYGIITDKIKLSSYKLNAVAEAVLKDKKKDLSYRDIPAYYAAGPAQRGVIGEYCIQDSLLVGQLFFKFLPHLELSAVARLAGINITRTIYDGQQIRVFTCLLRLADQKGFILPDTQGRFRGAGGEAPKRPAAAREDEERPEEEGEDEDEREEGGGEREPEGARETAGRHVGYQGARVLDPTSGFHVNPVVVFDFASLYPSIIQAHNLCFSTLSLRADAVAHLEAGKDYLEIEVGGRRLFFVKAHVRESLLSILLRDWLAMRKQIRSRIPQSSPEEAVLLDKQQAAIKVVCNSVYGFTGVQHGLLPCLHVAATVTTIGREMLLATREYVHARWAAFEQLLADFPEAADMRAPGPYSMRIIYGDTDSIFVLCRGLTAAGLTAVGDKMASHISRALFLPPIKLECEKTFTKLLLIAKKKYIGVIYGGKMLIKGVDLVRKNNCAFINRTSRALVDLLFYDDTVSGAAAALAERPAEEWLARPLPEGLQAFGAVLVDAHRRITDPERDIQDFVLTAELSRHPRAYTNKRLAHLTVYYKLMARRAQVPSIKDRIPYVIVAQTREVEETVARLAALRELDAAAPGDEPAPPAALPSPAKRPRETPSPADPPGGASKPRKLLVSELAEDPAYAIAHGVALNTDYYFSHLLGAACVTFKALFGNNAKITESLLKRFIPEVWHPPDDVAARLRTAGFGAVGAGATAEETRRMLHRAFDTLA
Method: (§1) HSV DNA polymerase was purified from H.Ep.-2 cells infected with HSV-1. Approximately 4 x 10^8 cells were infected with virus at a multiplicity of infection of 10 CCID50/cell. After a 1 hr adsorption period, the unattached virus was waxhed from the cells and the cultures were returned to the incubator at 37°C for another 8 hr. The cells were collected by centrifugation and mixed with a 0.3 M potassium phosphate buffer, pH 7.5, containing 0.3% Triton X-100 and 10% glycerol. The HSV DNA polymerase was purified approximately 288-fold from this crude extract, as described by Derse et al. (J. Biol. Chem. 257:10251, 1982). The specific activity of the HSV DNA polymerase was 4140 units/mg protein. Human DNA polymerases, a, β, and γ, were purified from 5.0 ml of packed K562 cells grown in cell culture as previously described (Parker et al., J. Biol. Chem. 266:1754, 1991). The specific activities of DNA polymerases α, β, and γ used in these studies were approximately 34, 1600, and 8 units/mg protein, respectively. One unit of enzyme activity is defined as the amount of enzyme needed to incorporate 1 nmol of [^3H]dGTP into acid-precipitable material per hour at 37°C, using gapped DNA as a template. HSV DNA polymerase activity was measured in 50 µl volumes containing 50 mM Tris, pH 8.0, 3 mM MgCl2, 0.5 mM dithiothreitol, 0.2 mg/ml bovine serum albumin, 0.2 M KCl, 12.5 µg/ml gapped DNA, 10 µM [^3H]dGTP (12 Ci/mmol), and 100 µM each of dATP, dCTP, and TTP. DNA polymerase α activity was measured in 50 µl volumes containing 50 mM Tris, pH 8.0, 1 mg/ml bovine serum albumin, 10 mM MgCl2, 1 mM dithiothreitol, 100 µg/ml gapped duplex DNA, 10 µM [^3H]dGTP (1 Ci/mmol), and 50 µM of each dATP, dCTP and TTP. DNA polymerase β and γ activities were measured as described for DNA polymerase α, except that the reactions included 100 mM KCl. After incubation for the desired time, the DNA in each sample was precipitated onto glass fiber filters using a 5% trichloroacetic acid solution containing 10 mM pyrophosphate. The filters were then washed three times with this solution followed by two washes with 95% ethanol, dried, and counted for radioactivity.
(§2) 2'CdG-TP was a potent competitive inhibitor of the incorporation of [^3H]dGTP into DNA by both the HSV DNA polymerase and the host DNA polymerase α (Fig. 9).
(§3) Under similar incubation conditions, the concentration of D-2'CdG-TP required to inhibit the incorporation of 1 µM [^3H]dGTP into the DNA by 50% was 2 µM with DNA polymerase a, but was 2200 and 300 µM for DNA polymerase β and γ, respectively (Table 4). […]

[2] = target: T2, DNA polymerase α (Homo sapiens, UniProt P09884); assay: Inhibition of [3H]dGTP incorporation into DNA by host DNA polymerase α; assay type: biochemical; settings: for pIC50: incorporation of 1 µM [3H]dGTP into DNA
T2 construct: Human DNA polymerases, a, β, and γ, were purified from 5.0 ml of packed K562 cells; endogenous in cells; host or cells: K562 cells
T2 sequence (P09884 whole entry): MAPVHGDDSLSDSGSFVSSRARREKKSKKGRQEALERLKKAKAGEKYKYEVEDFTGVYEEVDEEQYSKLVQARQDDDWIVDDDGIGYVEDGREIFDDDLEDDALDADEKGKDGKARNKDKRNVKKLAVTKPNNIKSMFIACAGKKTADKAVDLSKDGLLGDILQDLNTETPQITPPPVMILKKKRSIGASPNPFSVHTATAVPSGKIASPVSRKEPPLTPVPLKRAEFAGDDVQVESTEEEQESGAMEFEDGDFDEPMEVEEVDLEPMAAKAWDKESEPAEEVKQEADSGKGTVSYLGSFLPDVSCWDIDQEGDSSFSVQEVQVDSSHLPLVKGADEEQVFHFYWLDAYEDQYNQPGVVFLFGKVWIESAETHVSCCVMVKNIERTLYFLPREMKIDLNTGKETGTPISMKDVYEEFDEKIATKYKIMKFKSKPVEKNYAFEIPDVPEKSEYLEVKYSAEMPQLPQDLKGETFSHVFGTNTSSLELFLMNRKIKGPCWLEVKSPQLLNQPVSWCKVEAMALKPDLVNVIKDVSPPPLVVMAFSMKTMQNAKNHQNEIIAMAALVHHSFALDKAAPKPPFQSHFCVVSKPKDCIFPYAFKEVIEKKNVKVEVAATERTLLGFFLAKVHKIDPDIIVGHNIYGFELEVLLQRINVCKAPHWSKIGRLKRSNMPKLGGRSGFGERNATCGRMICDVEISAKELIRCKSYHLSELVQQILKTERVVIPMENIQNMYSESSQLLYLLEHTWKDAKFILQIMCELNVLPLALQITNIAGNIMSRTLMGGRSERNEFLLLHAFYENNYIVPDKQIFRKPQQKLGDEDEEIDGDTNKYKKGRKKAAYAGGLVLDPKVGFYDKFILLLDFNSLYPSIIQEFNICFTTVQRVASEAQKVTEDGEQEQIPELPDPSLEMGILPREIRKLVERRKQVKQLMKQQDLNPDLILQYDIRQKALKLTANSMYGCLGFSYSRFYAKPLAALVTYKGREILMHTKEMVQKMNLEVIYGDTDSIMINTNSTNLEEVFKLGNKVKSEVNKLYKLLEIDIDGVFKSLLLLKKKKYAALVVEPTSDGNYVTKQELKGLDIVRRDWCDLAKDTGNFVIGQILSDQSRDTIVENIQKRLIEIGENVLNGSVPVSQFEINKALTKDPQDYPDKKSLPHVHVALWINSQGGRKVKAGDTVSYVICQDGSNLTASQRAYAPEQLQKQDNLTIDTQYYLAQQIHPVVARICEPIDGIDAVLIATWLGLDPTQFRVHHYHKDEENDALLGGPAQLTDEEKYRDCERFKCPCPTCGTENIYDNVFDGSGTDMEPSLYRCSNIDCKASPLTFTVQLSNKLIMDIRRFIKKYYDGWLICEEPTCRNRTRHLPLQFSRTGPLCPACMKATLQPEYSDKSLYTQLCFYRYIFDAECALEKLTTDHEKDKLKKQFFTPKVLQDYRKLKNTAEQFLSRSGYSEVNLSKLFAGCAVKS
T2 sequence (Q14181 whole entry partner): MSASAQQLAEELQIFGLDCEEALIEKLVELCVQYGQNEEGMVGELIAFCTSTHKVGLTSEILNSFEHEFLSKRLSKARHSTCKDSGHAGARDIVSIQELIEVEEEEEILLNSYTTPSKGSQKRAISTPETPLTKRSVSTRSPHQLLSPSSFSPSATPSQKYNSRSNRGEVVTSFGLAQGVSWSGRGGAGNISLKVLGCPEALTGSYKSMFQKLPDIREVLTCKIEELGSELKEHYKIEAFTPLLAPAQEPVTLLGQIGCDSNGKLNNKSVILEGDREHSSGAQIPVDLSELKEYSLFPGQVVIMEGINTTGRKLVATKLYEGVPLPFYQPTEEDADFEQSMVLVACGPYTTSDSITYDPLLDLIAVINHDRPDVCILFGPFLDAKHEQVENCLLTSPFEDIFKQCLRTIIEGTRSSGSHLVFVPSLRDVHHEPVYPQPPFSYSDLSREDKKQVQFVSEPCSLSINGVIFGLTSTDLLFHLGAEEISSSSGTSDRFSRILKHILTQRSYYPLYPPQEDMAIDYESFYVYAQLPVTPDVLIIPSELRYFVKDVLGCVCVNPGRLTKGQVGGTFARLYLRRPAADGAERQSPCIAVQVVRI
T2 sequence (P49642 whole entry partner): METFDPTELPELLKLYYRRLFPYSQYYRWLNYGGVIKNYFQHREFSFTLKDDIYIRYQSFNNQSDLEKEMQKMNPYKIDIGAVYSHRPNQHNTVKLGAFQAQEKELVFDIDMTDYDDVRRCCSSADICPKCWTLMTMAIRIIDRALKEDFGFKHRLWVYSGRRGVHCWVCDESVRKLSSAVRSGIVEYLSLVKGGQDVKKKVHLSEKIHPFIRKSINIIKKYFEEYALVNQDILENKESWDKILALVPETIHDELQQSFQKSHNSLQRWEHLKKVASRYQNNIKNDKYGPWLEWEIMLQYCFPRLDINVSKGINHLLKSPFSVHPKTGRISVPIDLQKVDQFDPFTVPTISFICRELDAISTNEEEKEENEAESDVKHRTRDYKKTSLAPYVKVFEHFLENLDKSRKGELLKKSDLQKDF
T2 sequence (P49643 whole entry partner): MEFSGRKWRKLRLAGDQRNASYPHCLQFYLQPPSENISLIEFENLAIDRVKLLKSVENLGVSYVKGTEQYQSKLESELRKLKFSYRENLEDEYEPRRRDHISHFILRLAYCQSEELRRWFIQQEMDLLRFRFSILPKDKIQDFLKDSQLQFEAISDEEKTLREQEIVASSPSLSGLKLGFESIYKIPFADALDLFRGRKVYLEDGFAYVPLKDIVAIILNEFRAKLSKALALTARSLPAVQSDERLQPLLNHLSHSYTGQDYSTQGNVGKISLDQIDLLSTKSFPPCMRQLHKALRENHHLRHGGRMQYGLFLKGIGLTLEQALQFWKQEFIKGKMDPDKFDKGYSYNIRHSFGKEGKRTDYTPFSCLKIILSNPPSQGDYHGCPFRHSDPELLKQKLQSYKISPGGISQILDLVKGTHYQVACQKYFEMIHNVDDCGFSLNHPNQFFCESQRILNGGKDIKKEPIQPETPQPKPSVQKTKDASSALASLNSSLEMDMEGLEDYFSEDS
Method: as §1, §2, §3

[3] = target: T3, DNA polymerase β (Homo sapiens, UniProt P06746); assay: Inhibition of [3H]dGTP incorporation into DNA by DNA polymerase β; assay type: biochemical; settings: incorporation of 1 µM [3H]dGTP into DNA
T3 construct: Human DNA polymerases, a, β, and γ, were purified from 5.0 ml of packed K562 cells; endogenous in cells; host or cells: K562 cells
Method: (§4) HSV DNA polymerase was purified from H.Ep.-2 cells infected with HSV-1. Approximately 4 x 10^8 cells were infected with virus at a multiplicity of infection of 10 CCID50/cell. After a 1 hr adsorption period, the unattached virus was waxhed from the cells and the cultures were returned to the incubator at 37°C for another 8 hr. The cells were collected by centrifugation and mixed with a 0.3 M potassium phosphate buffer, pH 7.5, containing 0.3% Triton X-100 and 10% glycerol. The HSV DNA polymerase was purified approximately 288-fold from this crude extract, as described by Derse et al. (J. Biol. Chem. 257:10251, 1982). The specific activity of the HSV DNA polymerase was 4140 units/mg protein. […] HSV DNA polymerase activity was measured in 50 µl volumes containing 50 mM Tris, pH 8.0, 3 mM MgCl2, 0.5 mM dithiothreitol, 0.2 mg/ml bovine serum albumin, 0.2 M KCl, 12.5 µg/ml gapped DNA, 10 µM [^3H]dGTP (12 Ci/mmol), and 100 µM each of dATP, dCTP, and TTP. DNA polymerase α activity was measured in 50 µl volumes containing 50 mM Tris, pH 8.0, 1 mg/ml bovine serum albumin, 10 mM MgCl2, 1 mM dithiothreitol, 100 µg/ml gapped duplex DNA, 10 µM [^3H]dGTP (1 Ci/mmol), and 50 µM of each dATP, dCTP and TTP. DNA polymerase β and γ activities were measured as described for DNA polymerase α, except that the reactions included 100 mM KCl. […]

[4] = target: T4, DNA polymerase γ (Homo sapiens, UniProt P54098); assay: Inhibition of [3H]dGTP incorporation into DNA by DNA polymerase γ; assay type: biochemical; settings: incorporation of 1 µM [3H]dGTP into DNA
T4 sequence (P54098 26-1239): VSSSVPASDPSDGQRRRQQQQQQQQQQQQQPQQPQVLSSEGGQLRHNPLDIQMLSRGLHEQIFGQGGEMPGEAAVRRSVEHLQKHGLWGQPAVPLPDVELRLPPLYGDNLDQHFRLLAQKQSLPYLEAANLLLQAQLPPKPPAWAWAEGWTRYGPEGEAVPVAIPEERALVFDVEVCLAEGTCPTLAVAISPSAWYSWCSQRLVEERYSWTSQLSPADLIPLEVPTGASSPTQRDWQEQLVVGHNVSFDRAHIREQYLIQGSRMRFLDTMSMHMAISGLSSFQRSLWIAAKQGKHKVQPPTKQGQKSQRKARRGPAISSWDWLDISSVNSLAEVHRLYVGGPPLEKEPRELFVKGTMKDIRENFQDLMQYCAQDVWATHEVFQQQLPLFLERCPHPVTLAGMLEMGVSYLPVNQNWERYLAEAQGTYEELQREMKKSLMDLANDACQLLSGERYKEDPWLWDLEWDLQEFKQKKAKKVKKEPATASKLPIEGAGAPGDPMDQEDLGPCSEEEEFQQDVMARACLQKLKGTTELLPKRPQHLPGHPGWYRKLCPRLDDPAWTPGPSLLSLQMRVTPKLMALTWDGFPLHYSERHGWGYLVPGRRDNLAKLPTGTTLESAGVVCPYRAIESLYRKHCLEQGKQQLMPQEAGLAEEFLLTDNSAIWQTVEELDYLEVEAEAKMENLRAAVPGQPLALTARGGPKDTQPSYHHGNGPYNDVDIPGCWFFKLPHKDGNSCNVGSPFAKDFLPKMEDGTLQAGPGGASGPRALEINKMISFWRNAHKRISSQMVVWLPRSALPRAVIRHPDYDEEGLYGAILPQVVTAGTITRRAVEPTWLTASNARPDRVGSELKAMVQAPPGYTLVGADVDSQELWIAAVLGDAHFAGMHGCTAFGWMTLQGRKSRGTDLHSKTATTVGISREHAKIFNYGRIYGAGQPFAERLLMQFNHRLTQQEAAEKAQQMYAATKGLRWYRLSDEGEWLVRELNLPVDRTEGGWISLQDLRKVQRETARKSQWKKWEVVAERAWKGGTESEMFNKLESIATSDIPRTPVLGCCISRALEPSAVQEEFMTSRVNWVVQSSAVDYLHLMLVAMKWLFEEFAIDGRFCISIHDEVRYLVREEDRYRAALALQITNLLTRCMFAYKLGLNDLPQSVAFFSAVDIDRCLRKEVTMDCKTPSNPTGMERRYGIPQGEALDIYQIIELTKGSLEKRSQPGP
T4 sequence (Q9UHN1 26-485 partner): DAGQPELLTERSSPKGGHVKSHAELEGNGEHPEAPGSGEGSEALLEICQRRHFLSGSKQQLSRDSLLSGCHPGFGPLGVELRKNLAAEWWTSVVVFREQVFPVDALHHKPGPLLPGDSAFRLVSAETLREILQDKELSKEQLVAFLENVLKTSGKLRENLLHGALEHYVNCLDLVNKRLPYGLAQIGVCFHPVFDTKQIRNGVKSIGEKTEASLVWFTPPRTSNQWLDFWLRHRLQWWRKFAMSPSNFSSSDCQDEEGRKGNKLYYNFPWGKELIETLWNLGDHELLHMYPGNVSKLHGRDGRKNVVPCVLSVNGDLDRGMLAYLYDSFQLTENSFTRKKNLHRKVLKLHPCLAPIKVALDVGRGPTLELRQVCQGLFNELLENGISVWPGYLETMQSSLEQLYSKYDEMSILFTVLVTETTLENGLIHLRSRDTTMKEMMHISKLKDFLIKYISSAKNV
Method: as §4

| Structure (SMILES) | pIC50 [1] | pIC50 [2] | pIC50 [3] | pIC50 [4] | Ki/Km ratio ([1]; Km of dGTP) | pKi ([1]; competitive with [3H]dGTP) | Ki/Km ratio ([2]; Km of dGTP) | pKi ([2]; competitive with [3H]dGTP) |
| --- | --- | --- | --- | --- | --- | --- | --- | --- |
| Nc1nc2c(ncn2[C@H]2C[C@@H](COP(=O)(O)OP(=O)(O)OP(=O)(O)O)[C@H](O)C2)c(=O)[nH]1 [L-2'CdG-TP] | 3.34 | 3.33 | 2.85 | 3.67 | – | – | – | – |
| Nc1nc2c(ncn2[C@@H]2C[C@H](COP(=O)(O)OP(=O)(O)OP(=O)(O)O)[C@@H](O)C2)c(=O)[nH]1 [D-2'CdG-TP] | 5.82 | 5.70 | – | 3.52 | approximately 1 | 6.46 | approximately 1 | 6.02 |
